The results in this text go back to PMC12114375, “Discovery of Hydrazineyl Amide Derivative of Pseudolaric Acid B for Reprogramming Tumor-Associated Macrophages Against Tumor Growth” (Molecules, 2025).

The subject of test [1] is NOS2 mRNA expression in RAW 264.7 cells. The experiment in a line: qRT-PCR of NOS2 mRNA in IL-4/IL-13-stimulated RAW 264.7 cells. It is filed as cell-based, mouse. The settings on record: Mus musculus, RAW264.7, IL-4/IL-13 (20 ng/mL) plus compound 10 μM, 12 h, stimulated control = 100%, mean ± SD, read-out: NOS2 mRNA Relative Expression (%). An excerpt: We first investigated the impacts of a series of commercially available natural pseudolaric acids or their O-pyranosides (Figure 1) on the pro-tumoral phenotype of TAMs, which play a critical role in anti-tumor immune response modulation. […] In contrast, M1-biased macrophages combat tumor growth and bacterial infections by expressing inducible nitric oxide synthase 2 (NOS2), which catalyzes the production of nitric oxide (NO). Recognizing the pivotal roles of ARG1 and NOS2, we utilized these molecules as key biomarkers and effectors for assessing macrophage immune function. In our experiments, the mouse monocyte–macrophage leukemia cell line RAW 264.7 was induced with IL-4/IL-13 to acquire an M2-like pro-tumoral phenotype. Concurrently, the cells were treated with the pseudolaric acid-related natural products 1–7 at a concentration of 10 μM for 12 h. Additionally, PLX3397 was used as a positive control at a concentration of 0.5 μM. […] As shown in Table 1 and Figure S1A, pseudolaric acid B (1), its deacetoxyl analogue 2 (pseudolaric acid C), and β-D-glucoside 7 substantially attenuated the upregulation of ARG1 mRNA expression induced by IL-4/IL-13, with statistically significant effects. In contrast, bis-carboxylic acids analogs 4 (pseudolaric acid C2) and 6 (demethoxydeacetoxypseudolaric acid B) have no significant impact on ARG1 mRNA expression.
With these carboxylic acid-modified derivatives in hand, we investigated their impact at 10 μM on ARG1 and NOS2 mRNA expression in RAW 264.7 cells pre-stimulated with IL-4/IL-13 to evaluate the effects on the pro-tumor phenotype of macrophages. […] Further removal of one hydroxyl from the glycerol moiety 15 further enhanced the inhibitory effect on ARG1 expression but had no significant impact on NOS2 expression.
Total RNA was isolated from cells using the EZ-press RNA Purification Kit (EZBioscience, Suzhou, China) and subjected to reverse transcription with the 5×HiScript II qRT SuperMix II (Vazyme, Nanjing, China). PCR was performed with the 2×ChamQ Universal SYBR qPCR Master Mix (Vazyme, Nanjing, China). All primers for qRT-PCR are described in Table S1. The 2^−∆∆Ct method was utilized to calculate the fold change in gene expression, with the expression levels in the stimulated group set as the baseline for normalization.

Test [2] concerns ARG1 protein expression in BMDMs. Briefly: Western blot of ARG1 protein in macrophages. The note with it: CSF-1-differentiated BMDMs, IL-4 and IL-13, 48 h, different concentrations. Type of test: cell-based, mouse. The procedure: We also extended the test to primary murine macrophages derived from bone marrow (BMDMs), which were cultured in vitro with recombinant mouse M-CSF for 6 days. The BMDMs were then stimulated with IL-4/IL-13, leading to their transformation into M2-like pro-tumoral macrophages. This transformation was characterized by an increase in both ARG1 and CD206 expression and a decrease in both NOS2 and MHC II expression. […] Subsequently, we assessed the capacity of compound 12 to inhibit the M2-like polarization of macrophages using CSF-1-differentiated mouse BMDMs. These cells were treated with IL-4 and IL-13 for 48 h, and the expression levels of CD206, an M2-type marker, and CD86, an M1-type marker, were analyzed via flow cytometry.
Total cellular protein was extracted using a 1 × SDS lysis buffer and denatured at 100 °C for 15 min. […]
Figure 2 Compound 12 inhibits the M2-like polarized phenotype of macrophages. […] The expression levels of the markers CD206 and CD86 on induced macrophages were determined by flow cytometry, and the mean fluorescence intensity (MFI) was analyzed with FlowJo (C), or the cells were lysed and immunoblotted to detect the indicated proteins (D). […] Data are represented as means ± SD. ^### p < 0.001 vs. non-stimulated control group, * p < 0.05, ** p < 0.01, *** p < 0.001 vs. stimulated control group. p-values were determined using one-way ANOVA.
A general note: Immunoblotting shows a protein as a band on a membrane.

Take `COC(=O)C1=CC[C@@]23CC[C@@H]([C@@](C)(/C=C/C=C(\C)C(=O)NNCCO)OC2=O)[C@@]3(OC(C)=O)CC1` [compound 12, Methyl(3R,4S,4aS,9aR)-4a-acetoxy-3-((1E,3E)-5-(2-(2-hydroxyethyl)hydrazineyl)-4-methyl-5-oxopenta-1,3-dien-1-yl)-3-methyl-1-oxo-3,4,4a,5,6,9-hexahydro-1H-4,9a-ethanocyclohepta[c]pyran-7-carboxylate]: the activity at 10 µM in test [1] is 182 ± 5.3%. In addition, the “ARG1 protein expression (Western blot)” value in test [2] was “potent inhibitory activity at the protein level”.
